Tests used:
[1] = tested on: surinam grass; test: Test B pre/postemergence surinam grass; assay type: in vivo, Brachiaria decumbens
In short: (§1)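 Herbicidal effect was estimated by eye on a ten-point control scale after plants spent twelve to sixteen days in a greenhouse following soil or foliar treatment. Foliar sprays targeted plants at one to four leaves; all doses were formulated in a non-phytotoxic solvent with surfactant.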

[2] = tested on: wheat; test: Test B pre/postemergence wheat; assay type: in vivo, Triticum aestivum
In short: as §1

[3] = tested on: giant foxtail; test: Test B pre/postemergence giant foxtail; assay type: in vivo, Setaria faberii
In short: as §1

[4] = tested on: rape; test: Test B pre/postemergence rape; assay type: in vivo, Brassica napus
In short: as §1

[5] = tested on: sugar beet; test: Test B pre/postemergence sugar beet; assay type: in vivo, Beta vulgaris
In short: as §1

[6] = tested on: blackgrass; test: Test B pre/postemergence blackgrass; assay type: in vivo, Alopecurus myosuroides
In short: as §1

[7] = tested on: wild oat; test: Test B pre/postemergence wild oat; assay type: in vivo, Avena fatua
In short: as §1

[8] = tested on: corn; test: Test B pre/postemergence corn; assay type: in vivo, Zea mays
In short: as §1

[9] = tested on: bedstraw; test: Test B pre/postemergence bedstraw; assay type: in vivo, Galium aparine
In short: as §1

[10] = tested on: purple nutsedge; test: Test B pre/postemergence purple nutsedge; assay type: in vivo, Cyperus rotundus
In short: as §1

[11] = tested on: crabgrass; test: Test B pre/postemergence crabgrass; assay type: in vivo, Digitaria sanguinalis
In short: as §1

[12] = tested on: morningglory; test: Test B pre/postemergence morningglory; assay type: in vivo, Ipomoea hederacea
In short: as §1

[13] = tested on: cocklebur; test: Test B pre/postemergence cocklebur; assay type: in vivo, Xanthium strumarium
In short: as §1

[14] = tested on: velvetleaf; test: Test B pre/postemergence velvetleaf; assay type: in vivo, Abutilon theophrasti
In short: as §1

[15] = tested on: pigweed; test: Test B pre/postemergence pigweed; assay type: in vivo, Amaranthus retroflexus
In short: as §1

[16] = tested on: soybean; test: Test B pre/postemergence soybean; assay type: in vivo, Glycine max
In short: as §1

[17] = Postemergence, Rate 62 g/ha, scale 0 to 10, 0 is no effect, 10 is complete control
[18] = Postemergence, Rate 125 g/ha, scale of 0 to 10 where 0 is no effect and 10 is complete control
[19] = Preemergence, Rate 250 g/ha, scale 0 (no effect) to 10 (complete control)
[20] = Rate 125 g/ha, Preemergence, scale 0 to 10 (0 no effect, 10 complete control)
[21] = Rate 250 g/ha, Postemergence, scale 0 to 10, 0 is no effect, 10 is complete control
[22] = Rate 500 g/ha, Preemergence, scale 0 to 10 (0 no effect, 10 complete control)
[23] = Postemergence, Rate 500 g/ha, scale 0 (no effect) to 10 (complete control)
[24] = Rate 62 g/ha, Preemergence, scale 0 to 10

With `COc1ccc(N(C(=O)n2oc(=O)n(C(C)C)c2=O)C(C)C)cc1` [Compound 780] the “Plant response rating, B. signalgrass” value [1, 17] was 0, the “B. signalgrass plant response rating” value [1, 18] was 5 and the “B. signalgrass plant response rating” value [1, 19] was 8. For the same molecule, the “B. signalgrass plant response rating” value ([1]; Rate 62 g/ha, Preemergence, scale 0 (no effect) to 10 (complete control)) was 6, the “B. signalgrass plant response rating” value [1, 20] was 6 and the “B. signalgrass plant response rating” value [1, 21] was 5. The “B. signalgrass plant response rating” value ([1]; Rate 500 g/ha, Postemergence, scale 0 to 10, 0 is no effect, 10 is complete control) was 5, the “B. signalgrass plant response rating” value [1, 22] was 4 and the “Plant response rating, Wheat” value [2, 17] was 0. The “Wheat plant response rating” value [2, 23] was 2, the “Wheat plant response rating” value [2, 24] was 0 and the “Wheat plant response rating” value [2, 20] was 6. The “Wheat plant response rating” value [2, 21] was 0, the “Wheat plant response rating” value [2, 22] was 9 and the “Plant response rating, Giant foxtail” value [3, 17] was 7. The “Giant foxtail plant response rating” value [3, 18] was 8, the “Giant foxtail plant response rating” value [3, 23] was 9 and the “Giant foxtail plant response rating” value [3, 19] was 10. The “Giant foxtail plant response rating” value [3, 24] was 10, the “Giant foxtail plant response rating” value [3, 20] was 10 and the “Giant foxtail plant response rating” value [3, 21] was 9. For the same molecule, the “Giant foxtail plant response rating” value [3, 22] was 10, the “Plant response rating, Rape” value [4, 17] was 0 and the “Rape plant response rating” value [4, 18] was 0. For the same molecule, the “Rape plant response rating” value [4, 23] was 0, the “Rape plant response rating” value [4, 24] was 0 and the “Rape plant response rating” value [4, 20] was 0. The “Rape plant response rating” value [4, 21] was 0, the “Rape plant response rating” value [4, 22] was 6 and the “Plant response rating, Sugarbeets” value [5, 17] was 0. For the same molecule, the “Sugarbeets plant response rating” value [5, 23] was 0, the “Sugarbeets plant response rating” value [5, 24] was 2 and the “Sugarbeets plant response rating” value [5, 20] was 2. For the same molecule, the “Sugarbeets plant response rating” value [5, 21] was 0, the “Sugarbeets plant response rating” value [5, 22] was 6 and the “Plant response rating, Blackgrass” value [6, 17] was 0. For the same molecule, the “Blackgrass plant response rating” value [6, 18] was 2, the “Blackgrass plant response rating” value [6, 23] was 4 and the “Blackgrass plant response rating” value [6, 19] was 9. The “Blackgrass plant response rating” value [6, 24] was 2, the “Blackgrass plant response rating” value [6, 20] was 6 and the “Blackgrass plant response rating” value [6, 21] was 4. For the same molecule, the “Blackgrass plant response rating” value [6, 22] was 9, the “Plant response rating, Wild oats” value [7, 17] was 0 and the “Wild oats plant response rating” value [7, 23] was 2. The “Wild oats plant response rating” value [7, 24] was 0, the “Wild oats plant response rating” value [7, 20] was 0 and the “Wild oats plant response rating” value [7, 21] was 2. For the same molecule, the “Wild oats plant response rating” value [7, 22] was 9, the “Plant response rating, Corn” value [8, 17] was 0 and the “Corn plant response rating” value [8, 18] was 0. The “Corn plant response rating” value [8, 23] was 6, the “Corn plant response rating” value [8, 19] was 6 and the “Corn plant response rating” value [8, 24] was 2. The “Corn plant response rating” value [8, 20] was 2, the “Corn plant response rating” value [8, 21] was 3 and the “Corn plant response rating” value [8, 22] was 9. The “Plant response rating, Bedstraw” value [9, 17] was 0, the “Bedstraw plant response rating” value [9, 18] was 0 and the “Bedstraw plant response rating” value [9, 19] was 0. For the same molecule, the “Bedstraw plant response rating” value [9, 24] was 0, the “Bedstraw plant response rating” value [9, 20] was 0 and the “Bedstraw plant response rating” value [9, 22] was 2. For the same molecule, the “Plant response rating, Nutsedge” value [10, 17] was 0, the “Nutsedge plant response rating” value [10, 18] was 0 and the “Nutsedge plant response rating” value [10, 23] was 4. For the same molecule, the “Nutsedge plant response rating” value [10, 24] was 0, the “Nutsedge plant response rating” value [10, 20] was 0 and the “Nutsedge plant response rating” value [10, 21] was 4. The “Plant response rating, Crabgrass” value [11, 17] was 3, the “Crabgrass plant response rating” value [11, 18] was 4 and the “Crabgrass plant response rating” value [11, 23] was 7. For the same molecule, the “Crabgrass plant response rating” value [11, 19] was 10, the “Crabgrass plant response rating” value [11, 24] was 10 and the “Crabgrass plant response rating” value [11, 20] was 10. For the same molecule, the “Crabgrass plant response rating” value [11, 21] was 7, the “Crabgrass plant response rating” value [11, 22] was 10 and the “Plant response rating, Morningglory” value [12, 17] was 4. For the same molecule, the “Morningglory plant response rating” value [12, 18] was 4, the “Morningglory plant response rating” value [12, 23] was 8 and the “Morningglory plant response rating” value [12, 24] was 0. For the same molecule, the “Morningglory plant response rating” value [12, 20] was 0, the “Morningglory plant response rating” value [12, 21] was 7 and the “Morningglory plant response rating” value [12, 22] was 2. The “Plant response rating, Cocklebur” value [13, 17] was 0, the “Cocklebur plant response rating” value [13, 18] was 0 and the “Cocklebur plant response rating” value [13, 23] was 0. For the same molecule, the “Cocklebur plant response rating” value [13, 19] was 2, the “Cocklebur plant response rating” value [13, 24] was 0 and the “Cocklebur plant response rating” value [13, 20] was 0. For the same molecule, the “Cocklebur plant response rating” value [13, 21] was 0, the “Cocklebur plant response rating” value [13, 22] was 2 and the “Plant response rating, Velvetleaf” value [14, 17] was 0. For the same molecule, the “Velvetleaf plant response rating” value [14, 23] was 4, the “Velvetleaf plant response rating” value [14, 24] was 0 and the “Velvetleaf plant response rating” value [14, 20] was 3. For the same molecule, the “Velvetleaf plant response rating” value [14, 21] was 4, the “Velvetleaf plant response rating” value [14, 22] was 5 and the “Plant response rating, Redroot pigweed” value [15, 17] was 0. For the same molecule, the “Redroot pigweed plant response rating” value [15, 18] was 0, the “Redroot pigweed plant response rating” value [15, 23] was 0 and the “Redroot pigweed plant response rating” value [15, 24] was 0. For the same molecule, the “Redroot pigweed plant response rating” value [15, 20] was 3, the “Redroot pigweed plant response rating” value [15, 21] was 0 and the “Redroot pigweed plant response rating” value [15, 22] was 6. The “Plant response rating, Soybean” value [16, 17] was 3, the “Soybean plant response rating” value [16, 23] was 4 and the “Soybean plant response rating” value [16, 24] was 0. The “Soybean plant response rating” value [16, 20] was 0, the “Soybean plant response rating” value [16, 21] was 0 and the “Soybean plant response rating” value [16, 22] was 3.
